pIC50: −log10 of the molar value.
Columns and labels:
Assay type in all cases: cell-based
[1] = target: Met (phospho-Met, HGF-stimulated PC-3 prostate cancer cells) (Homo sapiens (Human), UniProt P08581); experiment: Met autophosphorylation ELISA in PC-3 cells (Example F); conditions: cellular activity; Met autophosphorylation ELISA in PC-3 cells; read-out: c-Met IC50
Procedure, shortened: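 Compounds were tested on HGF-stimulated PC-3 cells. After 24 h culture and 3 h serum starvation, cells got compound for 1 h and 100 ng/mL HGF for 10 min, and Met tyrosine phosphorylation was measured by ELISA.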

[2] = target: KDR (phospho-KDR, VEGF165-stimulated HUVEC cells) (Homo sapiens (Human), UniProt P35968); experiment: KDR autophosphorylation ELISA in HUVEC cells (Example G); conditions: cellular activity; KDR autophosphorylation ELISA in HUVEC cells
Procedure, shortened: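 HUVECs were serum-starved 24 h, given compound as an 8-point dilution series (0.3% DMSO final) for 1 h, then stimulated with 100 ng/mL VEGF165 for 5 min. Lysate phospho-KDR was quantified by sandwich ELISA against a phospho-KDR standard, and IC50s came from a 4-parameter logistic fit.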

[3] = target: Mer (phospho-Mer, MERTK-transfected 293A cells) (Homo sapiens (Human), UniProt Q12866); experiment: Mer autophosphorylation ELISA in transient transfected 293A cells (Example H); conditions: cellular activity; Mer autophosphorylation ELISA in transient transfected 293A cells
Procedure, shortened: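 293A cells transiently transfected with human MERTK were treated 1 h in serum-free medium with an 8-point compound dilution (0.3% DMSO final). Lysates were assayed by phospho-Mer sandwich ELISA against a phospho-Mer standard; IC50 came from a 4-parameter logistic fit, normalised to DMSO (100%) and reference-inhibitor (0%) controls.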

Chain of Met (phospho-Met, HGF-stimulated PC-3 prostate cancer cells) (P08581 25-1390): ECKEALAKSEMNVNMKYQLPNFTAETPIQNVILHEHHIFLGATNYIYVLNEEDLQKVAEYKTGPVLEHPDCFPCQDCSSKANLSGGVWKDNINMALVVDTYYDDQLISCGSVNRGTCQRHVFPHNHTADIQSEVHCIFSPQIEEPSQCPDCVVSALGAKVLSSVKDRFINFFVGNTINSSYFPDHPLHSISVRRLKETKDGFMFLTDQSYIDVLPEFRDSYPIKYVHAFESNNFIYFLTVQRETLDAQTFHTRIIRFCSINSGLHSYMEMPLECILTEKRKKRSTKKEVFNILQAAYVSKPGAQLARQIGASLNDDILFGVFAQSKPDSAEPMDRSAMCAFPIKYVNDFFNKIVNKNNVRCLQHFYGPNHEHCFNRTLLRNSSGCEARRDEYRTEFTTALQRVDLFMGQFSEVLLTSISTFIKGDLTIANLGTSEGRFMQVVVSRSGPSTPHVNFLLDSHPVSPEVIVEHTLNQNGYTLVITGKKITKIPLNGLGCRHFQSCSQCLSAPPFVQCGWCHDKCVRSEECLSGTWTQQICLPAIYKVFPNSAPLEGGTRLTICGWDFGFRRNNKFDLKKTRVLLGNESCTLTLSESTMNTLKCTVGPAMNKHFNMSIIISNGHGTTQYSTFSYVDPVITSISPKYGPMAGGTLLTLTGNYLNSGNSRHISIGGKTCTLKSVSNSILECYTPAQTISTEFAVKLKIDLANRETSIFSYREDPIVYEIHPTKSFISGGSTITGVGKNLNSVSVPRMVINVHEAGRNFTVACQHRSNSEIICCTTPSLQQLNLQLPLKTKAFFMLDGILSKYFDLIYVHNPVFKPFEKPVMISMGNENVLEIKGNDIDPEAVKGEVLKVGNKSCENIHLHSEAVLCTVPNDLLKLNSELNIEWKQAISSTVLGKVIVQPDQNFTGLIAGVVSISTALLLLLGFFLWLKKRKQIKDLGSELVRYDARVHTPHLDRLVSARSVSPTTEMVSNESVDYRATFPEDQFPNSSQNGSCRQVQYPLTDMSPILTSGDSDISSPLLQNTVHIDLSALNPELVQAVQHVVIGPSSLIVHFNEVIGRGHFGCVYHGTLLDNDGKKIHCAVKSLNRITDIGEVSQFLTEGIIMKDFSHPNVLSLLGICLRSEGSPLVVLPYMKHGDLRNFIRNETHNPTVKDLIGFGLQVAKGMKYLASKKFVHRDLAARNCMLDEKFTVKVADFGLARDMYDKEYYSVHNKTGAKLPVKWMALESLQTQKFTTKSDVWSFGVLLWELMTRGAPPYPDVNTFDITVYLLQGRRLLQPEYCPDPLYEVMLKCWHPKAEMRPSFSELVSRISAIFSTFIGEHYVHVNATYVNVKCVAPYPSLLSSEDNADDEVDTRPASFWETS
Chain of Mer (phospho-Mer, MERTK-transfected 293A cells) (Q12866 21-999): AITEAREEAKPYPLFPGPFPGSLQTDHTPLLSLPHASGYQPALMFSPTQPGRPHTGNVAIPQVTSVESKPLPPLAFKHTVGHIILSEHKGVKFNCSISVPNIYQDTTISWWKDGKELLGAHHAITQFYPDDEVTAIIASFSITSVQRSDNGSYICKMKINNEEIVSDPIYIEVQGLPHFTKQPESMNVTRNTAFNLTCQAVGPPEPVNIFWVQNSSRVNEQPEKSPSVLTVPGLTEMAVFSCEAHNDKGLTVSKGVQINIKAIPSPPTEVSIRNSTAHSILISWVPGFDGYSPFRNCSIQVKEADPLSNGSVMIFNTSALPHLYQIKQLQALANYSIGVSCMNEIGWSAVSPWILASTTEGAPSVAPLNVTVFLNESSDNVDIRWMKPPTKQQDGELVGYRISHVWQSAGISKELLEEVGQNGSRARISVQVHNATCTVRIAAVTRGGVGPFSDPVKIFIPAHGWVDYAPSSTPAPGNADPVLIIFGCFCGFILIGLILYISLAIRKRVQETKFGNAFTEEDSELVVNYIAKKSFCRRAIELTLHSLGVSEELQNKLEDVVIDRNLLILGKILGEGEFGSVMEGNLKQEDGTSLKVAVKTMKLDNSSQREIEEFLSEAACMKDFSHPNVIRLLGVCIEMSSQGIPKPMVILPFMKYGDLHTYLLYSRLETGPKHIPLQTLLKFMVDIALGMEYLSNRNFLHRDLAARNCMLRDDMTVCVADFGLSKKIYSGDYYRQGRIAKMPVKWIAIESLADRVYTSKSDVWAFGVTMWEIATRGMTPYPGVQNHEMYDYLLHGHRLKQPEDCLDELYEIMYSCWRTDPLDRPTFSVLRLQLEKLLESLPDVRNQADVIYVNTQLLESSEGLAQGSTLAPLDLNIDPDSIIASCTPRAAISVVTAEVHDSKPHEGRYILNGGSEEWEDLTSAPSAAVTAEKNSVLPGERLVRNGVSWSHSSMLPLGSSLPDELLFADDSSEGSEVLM
Chain of KDR (phospho-KDR, VEGF165-stimulated HUVEC cells) (P35968 20-1356): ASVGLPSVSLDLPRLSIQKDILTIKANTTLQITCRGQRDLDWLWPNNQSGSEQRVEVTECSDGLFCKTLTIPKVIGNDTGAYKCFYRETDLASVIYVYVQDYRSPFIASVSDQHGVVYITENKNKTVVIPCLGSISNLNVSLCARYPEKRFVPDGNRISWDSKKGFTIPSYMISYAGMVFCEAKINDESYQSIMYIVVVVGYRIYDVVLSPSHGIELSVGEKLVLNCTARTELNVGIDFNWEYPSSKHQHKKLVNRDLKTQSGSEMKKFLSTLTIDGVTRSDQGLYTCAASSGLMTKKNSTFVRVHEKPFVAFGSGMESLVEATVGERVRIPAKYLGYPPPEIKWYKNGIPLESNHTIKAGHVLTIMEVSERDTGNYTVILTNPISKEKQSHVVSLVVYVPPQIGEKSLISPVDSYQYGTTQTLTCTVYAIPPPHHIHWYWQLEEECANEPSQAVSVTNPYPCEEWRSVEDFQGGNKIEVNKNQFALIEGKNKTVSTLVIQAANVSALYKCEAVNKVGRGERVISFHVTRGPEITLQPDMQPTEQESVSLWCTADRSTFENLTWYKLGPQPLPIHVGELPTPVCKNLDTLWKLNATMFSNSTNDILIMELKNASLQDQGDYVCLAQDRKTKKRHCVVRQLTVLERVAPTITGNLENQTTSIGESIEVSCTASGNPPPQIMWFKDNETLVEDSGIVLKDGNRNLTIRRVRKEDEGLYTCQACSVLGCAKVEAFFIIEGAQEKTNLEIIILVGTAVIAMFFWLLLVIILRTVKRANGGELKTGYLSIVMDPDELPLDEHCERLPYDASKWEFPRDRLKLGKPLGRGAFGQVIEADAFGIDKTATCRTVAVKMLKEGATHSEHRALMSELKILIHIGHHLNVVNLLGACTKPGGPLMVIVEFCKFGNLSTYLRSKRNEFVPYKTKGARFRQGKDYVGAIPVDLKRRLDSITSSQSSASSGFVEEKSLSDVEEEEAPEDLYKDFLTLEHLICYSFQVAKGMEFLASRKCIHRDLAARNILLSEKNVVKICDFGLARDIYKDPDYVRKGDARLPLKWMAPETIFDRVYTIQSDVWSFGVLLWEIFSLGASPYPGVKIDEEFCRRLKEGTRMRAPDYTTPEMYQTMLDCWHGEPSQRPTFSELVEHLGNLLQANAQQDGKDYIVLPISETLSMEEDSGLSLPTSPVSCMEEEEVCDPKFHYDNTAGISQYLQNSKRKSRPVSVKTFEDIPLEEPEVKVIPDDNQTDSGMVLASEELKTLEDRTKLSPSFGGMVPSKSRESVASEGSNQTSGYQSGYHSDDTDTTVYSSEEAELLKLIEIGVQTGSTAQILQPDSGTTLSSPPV

pIC50 [1]	pIC50 [2]	pIC50 [3]	SMILES
> 7.00	> 7.00	> 7.00	COCCOc1cnc2c(Oc3ccc(NC(=O)c4ccc(C)n(-c5ccc(F)cc5)c4=O)cc3F)ccnc2c1 [Compound 552, N-[3-Fluoro-4-[[7-(2-methoxyethoxy)-1,5-naphthyridin-4-yl]oxy]phenyl]-1-(4-fluorophenyl)-6-methyl-2-oxopyridine-3-carboxamide]
> 7.00	< 6.52	6.52 to 7.00	COc1cc2nccc(Oc3ccc(NC(=O)c4cn(C)c(C(=O)O)c(-c5ccc(F)cc5)c4=O)cc3F)c2nc1OC [Compound 553, 5-[[4-[(6,7-Dimethoxy-1,5-naphthyridin-4-yl)oxy]-3-fluorophenyl]carbamoyl]-3-(4-fluorophenyl)-1-methyl-4-oxopyridine-2-carboxylic acid]
> 7.00	> 7.00	> 7.00	Cc1nc(C)c(-c2ccc(F)cc2)c(O)c1C(=O)Nc1ccc(Oc2ccnc3cc(O)cnc23)c(F)c1 [Compound 554, N-[3-Fluoro-4-[(7-hydroxy-1,5-naphthyridin-4-yl)oxy]phenyl]-5-(4-fluorophenyl)-4-hydroxy-2,6-dimethylpyridine-3-carboxamide]
> 7.00	> 7.00	> 7.00	COCCOc1cnc2c(Oc3ccc(NC(=O)c4c(C)nc(C)c(-c5ccc(F)cc5)c4O)cc3F)ccnc2c1 [Compound 555, N-[3-Fluoro-4-[[7-(2-methoxyethoxy)-1,5-naphthyridin-4-yl]oxy]phenyl]-5-(4-fluorophenyl)-4-hydroxy-2,6-dimethylpyridine-3-carboxamide]
> 7.00	> 7.00	> 7.00	COc1cc2nccc(Oc3ccc(NC(=O)c4cn(C)c(CF)c(-c5ccc(F)cc5C)c4=O)cc3F)c2nc1OC [Compound 556, N-[4-[(6,7-Dimethoxy-1,5-naphthyridin-4-yl)oxy]-3-fluorophenyl]-6-(fluoromethyl)-5-(4-fluoro-2-methylphenyl)-1-methyl-4-oxopyridine-3-carboxamide]
> 7.00	6.52 to 7.00	> 7.00	COCCOc1nc2c(Oc3ccc(NC(=O)c4cn(C)c(CF)c(-c5ccc(F)cc5)c4=O)cc3F)ccnc2cc1OC [Compound 557, N-[3-Fluoro-4-[[7-methoxy-6-(2-methoxyethoxy)-1,5-naphthyridin-4-yl]oxy]phenyl]-6-(fluoromethyl)-5-(4-fluorophenyl)-1-methyl-4-oxopyridine-3-carboxamide]
> 7.00	6.52 to 7.00	> 7.00	CCn1cc(C(=O)Nc2ccc(Oc3ccnc4cc(OC)c(OC)nc34)cc2)c(=O)c(-c2ccc(F)cc2)c1CF [Compound 558, N-[4-[(6,7-Dimethoxy-1,5-naphthyridin-4-yl)oxy]phenyl]-1-ethyl-6-(fluoromethyl)-5-(4-fluorophenyl)-4-oxopyridine-3-carboxamide]
> 7.00	< 6.52	> 7.00	CCn1cc(C(=O)Nc2ccc(Oc3ccnc4cc(OC)cnc34)c(F)c2)c(=O)c(-c2ccc(F)cc2)c1CF [Compound 559, 1-Ethyl-N-[3-fluoro-4-[(7-methoxy-1,5-naphthyridin-4-yl)oxy]phenyl]-6-(fluoromethyl)-5-(4-fluorophenyl)-4-oxopyridine-3-carboxamide]
> 7.00	6.52 to 7.00	> 7.00	COc1cc2nccc(Oc3ccc(NC(=O)c4cn(C)c(CF)c(-c5ccc(F)cc5)c4=O)cc3)c2nc1OC [Compound 560, N-[4-[(6,7-Dimethoxy-1,5-naphthyridin-4-yl)oxy]phenyl]-6-(fluoromethyl)-5-(4-fluorophenyl)-1-methyl-4-oxopyridine-3-carboxamide]
> 7.00	< 6.52	> 7.00	COc1ccc2nccc(Oc3ccc(NC(=O)c4cn(C)c(CF)c(-c5ccc(F)cc5)c4=O)cc3F)c2n1 [Compound 561, N-[3-Fluoro-4-[(6-methoxy-1,5-naphthyridin-4-yl)oxy]phenyl]-6-(fluoromethyl)-5-(4-fluorophenyl)-1-methyl-4-oxopyridine-3-carboxamide]
> 7.00	6.52 to 7.00	> 7.00	CCn1cc(C(=O)Nc2ccc(Oc3ccnc4cc(OC)c(OC)nc34)c(F)c2)c(=O)c(-c2ccc(F)cc2)c1CF [Compound 562, N-[4-[(6,7-Dimethoxy-1,5-naphthyridin-4-yl)oxy]-3-fluorophenyl]-1-ethyl-6-(fluoromethyl)-5-(4-fluorophenyl)-4-oxopyridine-3-carboxamide]

— patent US12371428B2 (Exelixis, Inc., priority 2019, dated 2025)
